The values that follow come from ChEMBL document CHEMBL4033665, “Synthesis and applications of benzohydroxamic acid-based histone deacetylase inhibitors” (Eur J Med Chem, 2017).

A value given as a limit tells only on which side of the number the result lay.

The target in test [1] is T1, Protein deacetylase HDAC6 (Homo sapiens, UniProt Q9UBN7).
T1 sequence (Q9UBN7 whole entry): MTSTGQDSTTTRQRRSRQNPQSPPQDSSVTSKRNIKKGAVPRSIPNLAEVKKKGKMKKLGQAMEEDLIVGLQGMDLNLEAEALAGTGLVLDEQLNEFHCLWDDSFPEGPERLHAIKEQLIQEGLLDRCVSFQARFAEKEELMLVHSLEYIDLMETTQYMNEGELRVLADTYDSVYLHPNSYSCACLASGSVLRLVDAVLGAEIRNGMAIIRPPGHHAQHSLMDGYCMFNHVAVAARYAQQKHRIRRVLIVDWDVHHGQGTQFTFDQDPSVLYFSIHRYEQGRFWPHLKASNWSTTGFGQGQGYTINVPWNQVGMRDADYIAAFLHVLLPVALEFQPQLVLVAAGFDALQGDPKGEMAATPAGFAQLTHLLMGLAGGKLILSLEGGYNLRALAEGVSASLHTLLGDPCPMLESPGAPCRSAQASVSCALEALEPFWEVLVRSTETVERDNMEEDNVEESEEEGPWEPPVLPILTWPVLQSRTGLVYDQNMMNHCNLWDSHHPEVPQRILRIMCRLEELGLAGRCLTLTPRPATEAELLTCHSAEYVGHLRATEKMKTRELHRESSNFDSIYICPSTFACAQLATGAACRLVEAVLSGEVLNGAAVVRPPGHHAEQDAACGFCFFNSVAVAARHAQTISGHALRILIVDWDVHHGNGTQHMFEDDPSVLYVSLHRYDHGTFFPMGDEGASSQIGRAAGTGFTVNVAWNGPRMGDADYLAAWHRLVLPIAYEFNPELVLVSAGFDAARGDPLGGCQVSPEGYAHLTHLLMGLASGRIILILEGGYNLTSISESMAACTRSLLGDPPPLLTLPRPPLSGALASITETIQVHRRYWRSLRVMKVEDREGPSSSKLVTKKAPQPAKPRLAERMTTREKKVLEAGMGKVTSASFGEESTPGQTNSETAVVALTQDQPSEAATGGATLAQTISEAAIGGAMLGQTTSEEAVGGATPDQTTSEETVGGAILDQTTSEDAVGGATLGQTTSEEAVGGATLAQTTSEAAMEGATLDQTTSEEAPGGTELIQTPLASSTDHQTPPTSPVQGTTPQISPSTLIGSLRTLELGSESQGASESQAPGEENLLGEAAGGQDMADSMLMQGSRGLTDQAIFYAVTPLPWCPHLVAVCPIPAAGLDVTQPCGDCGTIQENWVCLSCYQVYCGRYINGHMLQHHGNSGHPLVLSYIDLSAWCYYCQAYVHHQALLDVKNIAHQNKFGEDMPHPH
The test can be described thus: Inhibition of N-terminal GST-tagged full length human HDAC6 expressed in baculovirus expression system in Sf9 cells using AMC-labeled RHKKAc as substrate after 2 hrs by fluorescence assay.

Test [2] concerns the target T2, Histone deacetylase 1 (Homo sapiens, UniProt Q13547). The test can be described thus: Inhibition of C-terminal GST-tagged full length human HDAC1 expressed in baculovirus expression system in Sf9 cells using AMC-labeled RHKKAc as substrate after 2 hrs by fluorescence assay.
Test [3] addresses T3, Histone deacetylase 3 (Homo sapiens, UniProt O15379). The experiment in a line: Inhibition of C-terminal His-tagged full length human HDAC3 expressed in baculovirus expression system using AMC-labeled RHKKAc as substrate after 2 hrs by fluorescence assay.
Test [4] concerns the target Histone deacetylase HD1B (Zea mays, UniProt Q9ZTP8). The test can be described thus: Inhibition of maize HD1B.
The nature of test [5]: Inhibition of maize HD2. Further details: species or system Zea mays.
Test [6] can be described thus: Inhibition of maize HD1A. Also noted: species or system Zea mays.
Test [7] deals with T2, Histone deacetylase 1. The experiment in a line: Inhibition of HDAC1 (unknown origin).
In test [8] the target is T3, Histone deacetylase 3. The test can be described thus: Inhibition of HDAC3 (unknown origin).
The target of test [9] is T4, Histone deacetylase 7 (Homo sapiens, UniProt Q8WUI4).
T4 sequence (Q8WUI4 whole entry): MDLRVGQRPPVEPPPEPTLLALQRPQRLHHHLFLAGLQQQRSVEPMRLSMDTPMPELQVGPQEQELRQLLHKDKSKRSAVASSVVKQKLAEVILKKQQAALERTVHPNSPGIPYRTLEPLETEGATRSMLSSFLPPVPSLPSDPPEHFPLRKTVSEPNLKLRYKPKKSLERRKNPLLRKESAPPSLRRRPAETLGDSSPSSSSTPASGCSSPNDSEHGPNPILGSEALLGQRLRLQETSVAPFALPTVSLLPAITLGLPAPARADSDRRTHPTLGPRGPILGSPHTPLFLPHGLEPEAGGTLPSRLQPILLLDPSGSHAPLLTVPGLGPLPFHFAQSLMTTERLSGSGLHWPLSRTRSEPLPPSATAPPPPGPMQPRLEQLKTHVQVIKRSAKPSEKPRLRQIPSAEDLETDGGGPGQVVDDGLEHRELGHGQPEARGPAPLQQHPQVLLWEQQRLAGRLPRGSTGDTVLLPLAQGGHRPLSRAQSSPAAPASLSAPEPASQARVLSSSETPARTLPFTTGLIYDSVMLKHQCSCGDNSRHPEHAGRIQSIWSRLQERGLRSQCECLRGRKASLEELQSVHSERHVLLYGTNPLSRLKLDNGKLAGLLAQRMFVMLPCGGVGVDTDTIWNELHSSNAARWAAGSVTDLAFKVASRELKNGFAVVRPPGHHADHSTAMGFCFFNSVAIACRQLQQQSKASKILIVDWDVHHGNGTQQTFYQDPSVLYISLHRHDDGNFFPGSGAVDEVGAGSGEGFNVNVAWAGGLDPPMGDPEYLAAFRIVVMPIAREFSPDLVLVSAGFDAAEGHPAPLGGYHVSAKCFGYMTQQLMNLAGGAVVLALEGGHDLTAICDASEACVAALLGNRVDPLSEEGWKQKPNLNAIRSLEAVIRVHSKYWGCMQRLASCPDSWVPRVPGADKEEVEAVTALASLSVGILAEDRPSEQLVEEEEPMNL
The experiment in a line: Inhibition of HDAC7 (unknown origin).

Test [10] has as its target T1, Protein deacetylase HDAC6. The test can be described thus: Inhibition of human HDAC6 using RHKKAc as substrate by fluorescence assay.
The target of test [11] is T5, Polyamine deacetylase HDAC10 (Homo sapiens, UniProt Q969S8).
T5 sequence (Q969S8 whole entry): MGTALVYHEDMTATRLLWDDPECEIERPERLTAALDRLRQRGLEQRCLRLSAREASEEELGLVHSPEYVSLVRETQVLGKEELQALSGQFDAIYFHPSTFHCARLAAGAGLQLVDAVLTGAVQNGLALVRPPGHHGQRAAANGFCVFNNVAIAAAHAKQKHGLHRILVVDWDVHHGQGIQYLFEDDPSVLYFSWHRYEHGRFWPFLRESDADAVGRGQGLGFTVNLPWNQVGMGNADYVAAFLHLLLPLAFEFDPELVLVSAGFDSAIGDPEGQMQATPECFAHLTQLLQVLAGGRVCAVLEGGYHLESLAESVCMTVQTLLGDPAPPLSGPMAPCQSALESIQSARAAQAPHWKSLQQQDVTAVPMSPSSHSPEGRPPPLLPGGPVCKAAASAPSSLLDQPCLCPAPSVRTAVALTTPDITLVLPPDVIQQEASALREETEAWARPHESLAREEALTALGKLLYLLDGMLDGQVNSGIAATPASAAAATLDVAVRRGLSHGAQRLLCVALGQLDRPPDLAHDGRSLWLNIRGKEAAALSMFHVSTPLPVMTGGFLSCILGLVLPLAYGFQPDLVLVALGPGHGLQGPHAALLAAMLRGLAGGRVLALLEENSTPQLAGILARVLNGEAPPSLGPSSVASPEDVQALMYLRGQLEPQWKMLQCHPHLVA
The test can be described thus: Inhibition of human HDAC10 using RHKKAc as substrate by fluorescence assay.

Test [12] addresses T6, Histone deacetylase 8 (Homo sapiens, UniProt Q9BY41).
T6 sequence (Q9BY41 whole entry): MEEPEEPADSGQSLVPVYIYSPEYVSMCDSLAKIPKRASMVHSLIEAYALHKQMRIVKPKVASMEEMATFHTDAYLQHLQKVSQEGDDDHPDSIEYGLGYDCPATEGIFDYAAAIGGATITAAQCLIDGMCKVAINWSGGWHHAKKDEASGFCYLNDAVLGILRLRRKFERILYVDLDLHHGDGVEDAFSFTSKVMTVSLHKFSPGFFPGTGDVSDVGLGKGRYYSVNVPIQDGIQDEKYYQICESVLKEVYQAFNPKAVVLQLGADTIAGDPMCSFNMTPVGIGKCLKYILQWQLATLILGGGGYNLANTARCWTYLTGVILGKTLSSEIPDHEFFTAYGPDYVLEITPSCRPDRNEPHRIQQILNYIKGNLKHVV
The test can be described thus: Inhibition of human HDAC8 using RHKKAc as substrate by fluorescence assay.

In test [13] the target is Histone deacetylase 5 (Homo sapiens, UniProt Q9UQL6). The test can be described thus: Inhibition of human HDAC5 using RHKKAc as substrate by fluorescence assay.
Histone deacetylase 5, sequence (Q9UQL6 whole entry): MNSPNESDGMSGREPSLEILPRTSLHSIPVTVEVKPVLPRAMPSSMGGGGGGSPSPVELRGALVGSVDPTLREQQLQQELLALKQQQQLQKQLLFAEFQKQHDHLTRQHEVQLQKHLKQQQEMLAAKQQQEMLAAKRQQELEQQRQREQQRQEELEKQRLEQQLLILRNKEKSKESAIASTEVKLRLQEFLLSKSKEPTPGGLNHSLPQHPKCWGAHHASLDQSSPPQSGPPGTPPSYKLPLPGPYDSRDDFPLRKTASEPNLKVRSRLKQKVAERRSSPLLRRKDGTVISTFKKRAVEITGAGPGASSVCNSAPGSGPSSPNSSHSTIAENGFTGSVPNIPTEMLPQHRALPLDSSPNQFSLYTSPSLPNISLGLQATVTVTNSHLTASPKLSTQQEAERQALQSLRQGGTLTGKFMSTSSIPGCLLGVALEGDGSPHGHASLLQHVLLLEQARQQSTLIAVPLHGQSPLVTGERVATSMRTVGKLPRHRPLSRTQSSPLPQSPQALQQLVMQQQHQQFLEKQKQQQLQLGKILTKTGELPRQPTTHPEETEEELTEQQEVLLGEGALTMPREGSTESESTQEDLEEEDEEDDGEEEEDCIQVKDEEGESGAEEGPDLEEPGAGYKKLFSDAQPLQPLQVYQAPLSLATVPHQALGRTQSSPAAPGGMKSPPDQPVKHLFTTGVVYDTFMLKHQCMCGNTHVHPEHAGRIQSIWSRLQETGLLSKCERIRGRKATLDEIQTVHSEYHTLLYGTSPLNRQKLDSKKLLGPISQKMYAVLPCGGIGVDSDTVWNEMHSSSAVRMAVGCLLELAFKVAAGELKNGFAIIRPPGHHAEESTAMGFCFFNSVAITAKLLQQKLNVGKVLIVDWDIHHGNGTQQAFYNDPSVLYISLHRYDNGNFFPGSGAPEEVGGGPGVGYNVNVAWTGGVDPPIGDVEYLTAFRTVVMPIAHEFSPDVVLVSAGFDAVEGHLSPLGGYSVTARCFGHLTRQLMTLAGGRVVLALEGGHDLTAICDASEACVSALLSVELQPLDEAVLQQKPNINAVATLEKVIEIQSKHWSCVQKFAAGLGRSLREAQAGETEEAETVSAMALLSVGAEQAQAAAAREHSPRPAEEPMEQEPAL
Test [14] addresses Histone deacetylase 4 (Homo sapiens, UniProt P56524). The experiment in a line: Inhibition of human HDAC4 using RHKKAc as substrate by fluorescence assay.
For test [15], the target named is Histone deacetylase 2 (Homo sapiens, UniProt Q92769). The test can be described thus: Inhibition of human HDAC2 using RHKKAc as substrate by fluorescence assay.
Histone deacetylase 2, sequence (Q92769 whole entry): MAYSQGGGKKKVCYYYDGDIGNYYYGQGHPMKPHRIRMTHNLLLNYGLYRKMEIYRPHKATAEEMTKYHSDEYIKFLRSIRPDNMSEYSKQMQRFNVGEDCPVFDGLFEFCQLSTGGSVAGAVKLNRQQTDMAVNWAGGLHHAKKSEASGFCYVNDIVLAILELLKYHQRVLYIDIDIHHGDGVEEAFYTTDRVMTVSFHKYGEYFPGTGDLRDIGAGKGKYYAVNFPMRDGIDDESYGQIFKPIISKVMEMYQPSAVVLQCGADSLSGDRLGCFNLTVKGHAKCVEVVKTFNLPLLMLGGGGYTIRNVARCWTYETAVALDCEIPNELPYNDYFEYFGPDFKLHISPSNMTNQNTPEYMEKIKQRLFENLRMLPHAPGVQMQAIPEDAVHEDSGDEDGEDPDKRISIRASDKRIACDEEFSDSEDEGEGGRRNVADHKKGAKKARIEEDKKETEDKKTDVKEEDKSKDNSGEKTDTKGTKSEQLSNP
Test [16] has as its target T2, Histone deacetylase 1. The experiment in a line: Inhibition of human HDAC1 using RHKKAc as substrate by fluorescence assay.
For test [17], the target named is T2, Histone deacetylase 1. The experiment in a line: Inhibition of C-terminal His-tag and C-terminal FLAG-tagged full length human HDAC1 expressed in baculovirus expression system using AMC-labeled RHKKAc as substrate by fluorescence method.
Test [18] addresses T1, Protein deacetylase HDAC6. The experiment in a line: Inhibition of recombinant N-terminal GST-tagged full length human HDAC6 expressed in baculovirus expression system in Sf9 insect cells using AMC-labeled RHKKAc as substrate by fluorescence method.

T3 sequence (O15379 whole entry): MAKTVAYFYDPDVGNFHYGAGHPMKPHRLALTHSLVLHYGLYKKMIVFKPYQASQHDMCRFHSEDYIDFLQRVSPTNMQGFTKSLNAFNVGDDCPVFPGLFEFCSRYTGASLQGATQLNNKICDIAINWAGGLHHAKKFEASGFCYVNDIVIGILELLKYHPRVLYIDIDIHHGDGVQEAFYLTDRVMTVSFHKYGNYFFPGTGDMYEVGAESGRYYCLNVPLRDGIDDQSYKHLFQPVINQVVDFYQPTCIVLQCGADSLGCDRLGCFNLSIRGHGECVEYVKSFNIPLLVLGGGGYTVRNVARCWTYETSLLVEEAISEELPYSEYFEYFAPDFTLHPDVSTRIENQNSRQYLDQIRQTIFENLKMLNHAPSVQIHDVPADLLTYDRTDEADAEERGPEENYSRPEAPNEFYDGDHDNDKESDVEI
T2 sequence (Q13547 whole entry): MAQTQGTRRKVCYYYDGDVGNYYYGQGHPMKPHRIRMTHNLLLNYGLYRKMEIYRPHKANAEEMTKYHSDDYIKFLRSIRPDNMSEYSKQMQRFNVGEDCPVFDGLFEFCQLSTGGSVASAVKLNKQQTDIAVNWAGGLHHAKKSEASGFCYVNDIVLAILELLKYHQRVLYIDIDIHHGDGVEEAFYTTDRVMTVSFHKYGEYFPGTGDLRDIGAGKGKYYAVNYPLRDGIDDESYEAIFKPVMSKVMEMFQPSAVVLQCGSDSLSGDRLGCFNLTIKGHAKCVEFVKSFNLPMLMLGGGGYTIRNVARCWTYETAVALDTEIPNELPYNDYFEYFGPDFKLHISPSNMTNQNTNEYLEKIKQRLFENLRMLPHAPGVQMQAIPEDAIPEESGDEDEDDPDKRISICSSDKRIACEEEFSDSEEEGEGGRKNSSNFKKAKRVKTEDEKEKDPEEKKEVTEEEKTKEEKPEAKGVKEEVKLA
Histone deacetylase 4, sequence (P56524 whole entry): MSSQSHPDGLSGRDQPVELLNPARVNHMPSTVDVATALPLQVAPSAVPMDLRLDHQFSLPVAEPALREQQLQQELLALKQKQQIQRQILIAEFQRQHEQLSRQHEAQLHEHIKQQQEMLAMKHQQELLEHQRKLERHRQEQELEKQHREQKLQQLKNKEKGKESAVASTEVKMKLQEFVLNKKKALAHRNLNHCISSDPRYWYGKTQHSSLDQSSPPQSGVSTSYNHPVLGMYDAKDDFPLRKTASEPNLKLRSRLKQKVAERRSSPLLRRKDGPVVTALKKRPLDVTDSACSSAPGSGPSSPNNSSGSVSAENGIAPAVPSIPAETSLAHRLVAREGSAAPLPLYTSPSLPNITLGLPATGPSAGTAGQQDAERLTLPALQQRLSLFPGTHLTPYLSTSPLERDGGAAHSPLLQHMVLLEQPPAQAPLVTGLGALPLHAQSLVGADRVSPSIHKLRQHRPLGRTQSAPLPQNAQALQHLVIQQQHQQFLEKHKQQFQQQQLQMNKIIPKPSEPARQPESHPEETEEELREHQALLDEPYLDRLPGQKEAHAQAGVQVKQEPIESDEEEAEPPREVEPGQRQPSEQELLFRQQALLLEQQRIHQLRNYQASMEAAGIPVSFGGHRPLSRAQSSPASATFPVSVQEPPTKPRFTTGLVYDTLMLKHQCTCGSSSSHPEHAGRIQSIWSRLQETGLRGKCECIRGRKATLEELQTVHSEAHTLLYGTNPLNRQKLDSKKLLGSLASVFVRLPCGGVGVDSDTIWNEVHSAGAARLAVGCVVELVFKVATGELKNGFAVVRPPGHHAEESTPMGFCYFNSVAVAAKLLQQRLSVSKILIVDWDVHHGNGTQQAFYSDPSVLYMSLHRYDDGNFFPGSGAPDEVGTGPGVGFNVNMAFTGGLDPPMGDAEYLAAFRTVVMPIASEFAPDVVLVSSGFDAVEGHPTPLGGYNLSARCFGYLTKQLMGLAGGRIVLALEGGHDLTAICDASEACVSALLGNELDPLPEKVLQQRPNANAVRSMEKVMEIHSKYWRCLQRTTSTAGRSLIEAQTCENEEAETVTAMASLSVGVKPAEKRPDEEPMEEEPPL
Histone deacetylase HD1B, sequence (Q9ZTP8 whole entry): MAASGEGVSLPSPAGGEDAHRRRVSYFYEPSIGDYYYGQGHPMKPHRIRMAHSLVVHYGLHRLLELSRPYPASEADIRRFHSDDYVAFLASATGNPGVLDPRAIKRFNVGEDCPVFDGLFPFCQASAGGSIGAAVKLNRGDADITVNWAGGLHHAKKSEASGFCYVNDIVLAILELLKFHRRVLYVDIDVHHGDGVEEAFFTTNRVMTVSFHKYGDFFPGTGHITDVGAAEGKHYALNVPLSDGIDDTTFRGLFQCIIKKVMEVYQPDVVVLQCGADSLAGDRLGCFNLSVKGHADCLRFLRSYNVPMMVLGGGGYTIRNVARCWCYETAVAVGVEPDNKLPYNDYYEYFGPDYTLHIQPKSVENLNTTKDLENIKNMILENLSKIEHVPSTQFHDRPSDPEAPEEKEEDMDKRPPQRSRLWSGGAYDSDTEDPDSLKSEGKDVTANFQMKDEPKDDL

For orientation: IC50 means the concentration needed to halve the response being measured. For `COc1ccc(-c2cc(-c3ccoc3)c(C(=O)NCc3ccc(C(=O)NO)cc3)[nH]2)cc1`, the results for the half-maximal inhibitory concentration (IC50) in test [1], in test [2] and in test [3] were 0.002 µM, 0.07 µM and 0.08 µM, respectively.
Regarding `CCN(CC)Cc1ccc2cc(COC(=O)Nc3ccc(C(=O)NO)cc3)ccc2c1` [GIVINOSTAT], the concentration for half-maximal inhibition (IC50) in test [4], in [5] and in test [6] was 0.0075 to 0.016 µM in each case.
Regarding `O=C(/C=C/c1cccc(C(=O)NO)c1)NO`, the IC50 worked out at 0.01 µM in test [7] and 0.07 µM in test [8].
`O=C(NO)c1ccc(NCc2csc3ccc(Br)cc23)cc1`: the IC50 in [7], in test [8] and in test [9] was greater than 10 µM each time.
With `CN1C(=O)C2CN(Cc3c2c2ccccc2n3Cc2ccc(C(=O)NO)cc2)C1=O` (stereo not given), the IC50 in test [10] was found to be 0.004 µM; in test [11], 10.5 µM; in test [12], 0.25 µM; in test [13] it was 1.57 µM; in [14] it was 3.82 µM; in [15] it was 7.45 µM. In test [16], this compound showed an IC50 of 3.62 µM.
Take `Cc1noc(C)c1-c1ccnc(N(Cc2ccc(C(=O)NO)cc2)c2cnccn2)c1`: the IC50 in test [17] was no less than 10 µM; in test [18], no more than 0.5 µM.
